From patent publication US20110294741A1, “USE OF COMPOUNDS IN THE TREATMENT OF TAU-INDUCED CYTOTOXICITIES” (Bioalvo-Servicos, Investigacao e Desenvolvimento em …, priority 2008, published 2011)

Legend:
[1] = tested on: […] I cells, tunicamycin-induced ER stress; experiment: Yeast platform DISAGGREGATOR I, ER stress GFP reporter (chemically induced with tunicamycin); type: cell-based; details: 1 μg/ml tunicamycin
Protocol: Cells were grown as described for FIG. 7;
The yeast platform DISAGGREGATOR I comprises an ER stress element operably linked to a GFP reporter element and is used to determine the level of ER stress in cells during growth or triggered by specific ER stress inducers, e.g. tunicamycin. Tunicamycin is known to inhibit the glycosylation of nascent polypeptides, resulting in misfolded proteins, that are retained in the endoplasmic reticulum and therefore triggering ER stress.
(§1) Using these two platforms in parallel, it is possible to identify compounds that reduce specifically the stress induced by the TAU P301L protein, and other compounds that are simply general ER stress reducers.
(§2) DISAGGREGATOR I P301L cells were grown in 200 μl medium containing the KTP-NH2 at a concentration of 10 μM and 100 μM. DISAGGREGATOR I cells were grown in the same condition but subjected to an addition of 1 μg/mL of tunicamycin in order to induce ER stress chemically.

rats (Wister, male) = experiment: In vivo toxicology: histological alterations in liver, kidney and spleen; parameters: species or system rat; details: i.p. once a day 3.23 mg-100 g body mass, seven days, hematoxylin/eosin sections
Protocol: The toxicological studies were carried out with rats (Wister, male) injected i.p. once a day with 3.23 mg-100 g body mass during seven days.
For investigation of histological alterations in liver, kidney and spleen hematoxylin/eosin-stained sections of fixed tissue were used. Hematoxylin/eosin-stained sections were examined by an experienced pathologist.

[2] = tested on: Tau P301L ([…] I P301L cells); experiment: Yeast platform DISAGGREGATOR I P301L, ER stress GFP reporter (target induced); type: cell-based; details: for decrease of the fluorescent signal: first assay (FIG. 9); for decrease of the stress: second assay (FIG. 11)
Protocol: Cells were grown in 200 microlitre minimum medium supplemented with 20 g/L galactose, at 30° C., with agitation at 600 rpm;
KTP-NH2 was further tested on a general inducer of the same pathological mechanism to assess its specificity for tau and compared with two control KTP derivatives which were tested on the same platform.
The Endoplasmic Reticulum (ER) fulfils multiple cellular functions, the main one being the proper folding of proteins destined for secretion or display on the cell surface. Many disturbances cause accumulation of unfolded proteins in the ER, triggering an evolutionarily conserved response, termed the unfolded protein response (UPR) or ER stress. The initial intent of the UPR is to adapt to the changing environment, and re-establish normal ER function.
In parallel, the yeast platform DISAGGREGATOR I P301L comprises the same ER stress element operably linked to the same GFP reporter element and additionally expresses the exogenous protein TAU P301L which induces ER stress.
as §1
DISAGGREGATOR I P301L cells were grown in 200 μl medium containing KTP-NH2 or control compounds (referred to as control 1 and control 2) at a concentration of 10 μM and 100 μM. No effect on the fluorescence could be detected for the control compounds, meaning that the two compounds are inefficient to reduce the stress triggered by the TAU P301L protein (FIGS. 7 and 8).
as §2
The inventors created a yeast-based screening application for the detection of compounds that act as modulators of the toxicity (neurodegeneration) for neurons (not pain) induced by the expression of tau P301L, a pathological isoform of tau protein. This yeast-based application is designated as DISAGGREGATOR I P301L and provides a valuable tool for the high throughput screening of tau modulators. It is a model-based system where the cellular environment produced upon P301L expression is recapitulated and cell toxicity is measured and quantified. Compounds that have the potential to modulate pathological pathways activated by the expression of P301L are detected through a reduction in the cytotoxic readout. Tau protein is expressed in central nerve cells and, consequently, tauopathies are diseases of the central nervous system. This implies that a therapeutic compound for tauopathies must be able to access the central nervous system by penetrating the blood-brain barrier. We tested KTP-NH2 in the DISAGGREGATOR P301L system. Results were very impressive for KTP-NH2 to be used as a drug for tau-associated pathologies. Therefore, after obtaining the proof of concept confirmation of KTP-NH2 potential as a tau modulator, we developed a series of derivatives with a higher plasma-stability. The present invention protects the use of KTP-NH2 and its derivatives in the treatment of tau-induced cytotoxicities.

[3] = Partition of peptide into lipid bilayer vesicles (fluorescence titration); type: physicochemical
From the text: Vesicles of zwiterionic lipid, POPC ([…]), and POPC with negative lipid, POPG in different proportions: 80:20 ▪, 50:50 and 30:70 ? until 100% POPG ( ? ). The unit of 1/1 w on the y axis is the ratio between fluorescence intensities.
Vesicles of zwiterionic lipid, POPC, and POPC with negative lipid, POPG, in the proportion 50 POPC: 50 POPG.
As can be observed, the fluorescence intensity of the phenolic moiety increases due to the insertion in the apolar environment created by the lipids. Negative lipids (other symbols) inhibit the interaction due to charge repulsion. […] KTP-NH2 is therefore suitable for i.v. or i.p. administration. KTP-NH2 diffuses through the blood stream, reaches the BBB, and translocates.
In order to confirm that these plasma-stable KTP-NH2 derivatives maintained their lipophilicity, their potential interaction with human cell membranes was assessed. Again, we performed biophysical studies using fluorescent methodologies (Santos N. C., Prieto M. and Castanho M. A. 2003. Quantifying molecular partition into model systems of biomembranes: an emphasis on optical spectroscopic methods. Biochim Biophys Acta 1612: 123-135.).

[4] = Acrylamide quenching to determine aggregation in aqueous medium; type: physicochemical; details: acrylamide quenching of tyrosine fluorescence, Stern-Volmer plot
Protocol: The aggregation of molecules in aqueous medium, as a result of poor solubility, for example, is a critical parameter in pharmacology. […] For this purpose, acrylamide quenching studies were performed (Lakowicz J. R 1999. Principles of Fluorescence spectroscopy, Second Edition ed., Kluwer Academic/Plenum Publishers, New York; Coutinho A and Prieto M. 1993. Ribonuclease T1 and alcohol dehydrogenase fluorescence quenching by acrylamide: A laboratory experiment for undergraduate students J. Chem. Education, 70: 425-428).
Acrylamide is an aqueous quencher of the tyrosine fluorescence. When fluorescent peptides aggregate, the phenolic groups tend to cluster and remain inaccessible to hydrophilic molecules. Conversely, when no aggregation occurs, all tyrosine residues are exposed to the solvent and, therefore, accessible to the contact and quenching by acrilamide.
The fluorescence spectra were not concentration-dependent (not shown) and there was a linear dependence of fluorescence intensity on concentration (not shown).

[5] = 100 μM, average of two experiments (FIG. 13)

Compound: N=C(N)NCCCC(NC(=O)C(N)Cc1ccc(O)cc1)C(N)=O [KTP-NH2, L-Tyr-L-Arg-NH2]
- action on ER stress chemically induced with tunicamycin ([1]; 10 and 100 μM, first assay (FIG. 10)): almost no action
- decrease of stress chemically induced with tunicamycin ([1]; second assay (FIG. 12)): did not significantly decrease
- residual ER stress signal, of the maximum level without compound [1, 5]: 80%
- histological alterations in kidney and spleen (rats (Wister, male)): no histological modifications were found
- histological alterations in liver (rats (Wister, male)): no signs of hepatic necrosis
- effect on the fluorescence (ER stress triggered by TAU P301L) ([2]; 10 μM and 100 μM): decreased the fluorescence signal
- decrease of the fluorescent signal ([2]; 10 μM): 40%
- decrease of the stress ([2]; 10 μM): 50%
- residual ER stress signal, of the maximum level without compound [2, 5]: ~40%
- decrease of the fluorescent signal ([2]; 100 μM): 65%
- decrease of the stress ([2]; 100 μM): 50%
- partition coefficient for POPC, compared with KTP-OH ([3]; POPC membranes, KTP-OH value from Lopes et al 2006): significantly superior to the one of KTP-OH
- local concentration in the model membrane of mammals versus surrounding bulk aqueous phase ([3]; POPC vesicles, numerical treatment of fluorescence titration data): approx. 2,500 fold
- aggregation in aqueous medium [4]: No evidence was found for aggregation
